Source: patent publication US12544453B2, “Amphotericin B conjugated stabilized gold nanoparticles and uses thereof” (Max-Planck-Gesellschaft zur Förderung der Wissenschaften …, priority 2019, dated 2026)
Converted amounts (≈) assume the structure as drawn. Where two headings read alike, the source gives them in different places.

How the values were obtained:
Assay in all cases: Antifungal susceptibility testing, broth microdilution MIC
Assay type in all cases: cell-based
Candida auris = details: Candidozyma auris, fluconazole MIC50 (50% growth reduction), read-out: Minimum Inhibitory Concentration (MIC)
Protocol: (§1) The minimum inhibitory concentrations (MICs) of fluconazole, amphotericin B, amphotericin B thiohexose or thiopentose stabilized gold nanoparticles, and of naked gold nanoparticles were determined using broth microdilution methods following the guidelines of the Clinical and Laboratory Standards Institute (Reference Method for Broth Dilution Antifungal Susceptibility Testing of Yeasts, Alexander B. D., 2017, M27-A4). Microtiter 96-well plates containing two-fold serial dilutions, at final concentrations ranging from […], of the test agents in RPMI-1640 medium (buffered with MOPS and adjusted to pH=7) were inoculated with the freshly-prepared fungal suspensions. Microtiter plates were incubated at 35° C. for 24-72 hrs according to the tested species.

Cryptococcus neoformans = details: read-out: Minimum Inhibitory Concentration (MIC)
Protocol: as §1

Candida krusei = details: Pichia kudriavzevii, read-out: Minimum Inhibitory Concentration (MIC)
Protocol: as §1

Candida tropicalis = test system: Candida tropicalis
Protocol: as §1

Candida glabrata = details: Nakaseomyces glabratus, fluconazole MIC50 (50% growth reduction), read-out: Minimum Inhibitory Concentration (MIC)
Protocol: as §1

Cryptococcus gatti = details: read-out: Minimum Inhibitory Concentration (MIC)
Protocol: as §1

Candida parapsilosis = details: Lodderomyces parapsilosis, read-out: Minimum Inhibitory Concentration (MIC)
Protocol: as §1

Aspergillus fumigatus = details: read-out: Minimum Inhibitory Concentration (MIC)
Protocol: as §1

Candida albicans = details: read-out: Minimum Inhibitory Concentration (MIC)
Protocol: as §1

- MIC (Candida auris; Candida auris 381): 1 µg/mL (≈ 3.27 µM)
- MIC (Candida auris; Candida auris 385): > 128 µg/mL
- MIC (Candida auris; Candida auris 386): > 128 µg/mL
- MIC (Candida auris; Candida auris 389): > 128 µg/mL
- MIC (Candida auris; Candida auris 390): > 128 µg/mL
- MIC (Cryptococcus neoformans; Cryptococcus neoformans NR-41291, fluconazole MIC50 (50% growth reduction)): 16 µg/mL (≈ 52.2 µM)
- MIC (Cryptococcus neoformans; Cryptococcus neoformans NR-41295, fluconazole MIC50 (50% growth reduction)): 32 µg/mL (≈ 104 µM)
- MIC (Cryptococcus neoformans; Cryptococcus neoformans NR-41298, fluconazole MIC50 (50% growth reduction)): 4 µg/mL (≈ 13.1 µM)
- MIC (Cryptococcus neoformans; Cryptococcus neoformans NR-48767, fluconazole MIC50 (50% growth reduction)): 4 µg/mL (≈ 13.1 µM)
- MIC (Candida krusei; ATCC14243): 16 µg/mL (≈ 52.2 µM)
- MIC (Candida krusei; ATCC34135): 16 µg/mL (≈ 52.2 µM)
- MIC (Candida krusei): 16 µg/mL (≈ 52.2 µM)
- MIC (Candida tropicalis; ATCC1369, read-out: Minimum Inhibitory Concentration (MIC)): 0.5 µg/mL (≈ 1.63 µM)
- MIC (Candida tropicalis; ATCC13803, read-out: Minimum Inhibitory Concentration (MIC)): 0.25 µg/mL (≈ 0.816 µM)
- MIC (Candida glabrata; ATCC2001, Candida glabrata ATCC 2001): 4 µg/mL (≈ 13.1 µM)
- MIC (Candida glabrata; ATCC66032, Candida glabrata ATCC 66032): 8 µg/mL (≈ 26.1 µM)
- MIC (Candida glabrata; Candida glabrata ATCC MYA-2950): 8 µg/mL (≈ 26.1 µM)
- MIC (Candida glabrata; Candida glabrata CAB 524041): 4 µg/mL (≈ 13.1 µM)
- MIC (Cryptococcus gatti; Cryptococcus gatti NR-43208, fluconazole MIC50 (50% growth reduction)): 8 µg/mL (≈ 26.1 µM)
- MIC (Cryptococcus gatti; Cryptococcus gatti NR-43209, fluconazole MIC50 (50% growth reduction)): 16 µg/mL (≈ 52.2 µM)
- MIC (Cryptococcus gatti; Cryptococcus gatti NR-43210, fluconazole MIC50 (50% growth reduction)): 16 µg/mL (≈ 52.2 µM)
- MIC (Cryptococcus gatti; Cryptococcus gatti NR-43213, fluconazole MIC50 (50% growth reduction)): 8 µg/mL (≈ 26.1 µM)
- MIC (Candida parapsilosis; ATCC22019): 2 µg/mL (≈ 6.53 µM)
- MIC (Candida parapsilosis): 0.5 µg/mL (≈ 1.63 µM)
- MIC (Aspergillus fumigatus; Aspergillus fumigatus NR-35303, fluconazole MIC50 (50% growth reduction)): 128 µg/mL (≈ 418 µM)
- MIC (Aspergillus fumigatus; Aspergillus fumigatus NR-35304, fluconazole MIC50 (50% growth reduction)): > 128 µg/mL
- MIC (Aspergillus fumigatus; Aspergillus fumigatus NR-41312, fluconazole MIC50 (50% growth reduction)): 128 µg/mL (≈ 418 µM)
- MIC (Candida albicans; ATCC10231, Candida albicans ATCC 10231, fluconazole MIC50 (50% growth reduction)): 2 µg/mL (≈ 6.53 µM)
- MIC (Candida albicans; ATCC26790, Candida albicans ATCC 26790, fluconazole MIC50 (50% growth reduction)): 1 µg/mL (≈ 3.27 µM)
- MIC (Candida albicans; ATCC64124, Candida albicans ATCC 64124, fluconazole MIC50 (50% growth reduction)): 128 µg/mL (≈ 418 µM)
- MIC (Candida albicans; Candida albicans NR 29446, fluconazole MIC50 (50% growth reduction)): > 128 µg/mL
- MIC (Candida albicans; Candida albicans NR 29448, fluconazole MIC50 (50% growth reduction)): > 128 µg/mL
- MIC (Candida albicans; SC5314, Candida albicans SC5314, fluconazole MIC50 (50% growth reduction)): 0.5 µg/mL (≈ 1.63 µM)
Compound: OC(Cn1cncn1)(Cn1cncn1)c1ccc(F)cc1F [Fluconazole]
